Numbers after ± are expanded uncertainties.
Experiment: xn = mol fraction of the nth substance listed
Details: 100 kPa, Liquid; for viscosity: Falling or rolling sphere viscometry; for mass density: Vibrating tube method

CCCCC1CCCCC1 [butylcyclohexane] + CCCCCCCCCC
Details | mass density, 293.15 K [kg/m3] | mass density, 298.15 K [kg/m3] | mass density, 303.15 K [kg/m3] | mass density, 308.15 K [kg/m3] | mass density, 313.15 K [kg/m3] | viscosity, 293.15 K [mPa·s] | viscosity, 298.15 K [mPa·s] | viscosity, 303.15 K [mPa·s] | viscosity, 308.15 K [mPa·s] | viscosity, 313.15 K [mPa·s]
x1 = 0.0508 | 733.71 ± 0.16 | 729.95 ± 0.16 | 726.17 ± 0.16 | 722.37 ± 0.16 | 718.56 ± 0.17 | 0.944 ± 0.012 | 0.879 ± 0.012 | 0.82 ± 0.012 | 0.767 ± 0.011 | 0.72 ± 0.011
x1 = 0.1001 | 736.83 ± 0.16 | 733.07 ± 0.16 | 729.29 ± 0.16 | 725.5 ± 0.16 | 721.69 ± 0.16 | 0.956 ± 0.012 | 0.89 ± 0.012 | 0.831 ± 0.012 | 0.778 ± 0.011 | 0.73 ± 0.011
x1 = 0.1992 | 743.19 ± 0.16 | 739.43 ± 0.16 | 735.66 ± 0.16 | 731.87 ± 0.16 | 728.07 ± 0.16 | 0.984 ± 0.012 | 0.914 ± 0.012 | 0.853 ± 0.012 | 0.798 ± 0.012 | 0.748 ± 0.011
x1 = 0.2994 | 749.74 ± 0.16 | 745.99 ± 0.16 | 742.22 ± 0.16 | 738.44 ± 0.16 | 734.64 ± 0.16 | 1.014 ± 0.012 | 0.94 ± 0.012 | 0.877 ± 0.012 | 0.819 ± 0.012 | 0.768 ± 0.011
x1 = 0.3996 | 756.42 ± 0.16 | 752.67 ± 0.16 | 748.91 ± 0.16 | 745.13 ± 0.16 | 741.34 ± 0.16 | 1.047 ± 0.013 | 0.969 ± 0.012 | 0.903 ± 0.012 | 0.842 ± 0.012 | 0.789 ± 0.012
x1 = 0.5002 | 763.27 ± 0.16 | 759.53 ± 0.16 | 755.76 ± 0.16 | 751.99 ± 0.16 | 748.2 ± 0.16 | 1.084 ± 0.013 | 1.003 ± 0.012 | 0.932 ± 0.012 | 0.869 ± 0.012 | 0.813 ± 0.012
x1 = 0.5955 | 769.88 ± 0.15 | 766.14 ± 0.16 | 762.38 ± 0.16 | 758.61 ± 0.16 | 754.83 ± 0.16 | 1.122 ± 0.013 | 1.037 ± 0.013 | 0.963 ± 0.012 | 0.897 ± 0.012 | 0.84 ± 0.012
x1 = 0.6988 | 777.19 ± 0.15 | 773.45 ± 0.15 | 769.7 ± 0.16 | 765.93 ± 0.16 | 762.15 ± 0.16 | 1.166 ± 0.013 | 1.078 ± 0.013 | 1.001 ± 0.012 | 0.931 ± 0.012 | 0.871 ± 0.012
x1 = 0.8012 | 784.6 ± 0.15 | 780.86 ± 0.15 | 777.11 ± 0.15 | 773.34 ± 0.16 | 769.57 ± 0.16 | 1.21 ± 0.013 | 1.121 ± 0.013 | 1.039 ± 0.013 | 0.966 ± 0.012 | 0.902 ± 0.012
x1 = 0.8998 | 791.88 ± 0.15 | 788.15 ± 0.15 | 784.4 ± 0.15 | 780.63 ± 0.15 | 776.86 ± 0.15 | 1.253 ± 0.014 | 1.159 ± 0.013 | 1.074 ± 0.013 | 0.998 ± 0.012 | 0.932 ± 0.012
x1 = 0.9497 | 795.63 ± 0.15 | 791.89 ± 0.15 | 788.14 ± 0.15 | 784.37 ± 0.15 | 780.61 ± 0.15 | 1.275 ± 0.014 | 1.178 ± 0.013 | 1.091 ± 0.013 | 1.013 ± 0.012 | 0.946 ± 0.012
x1 = 1 | 799.44 ± 0.15 | 795.7 ± 0.15 | 791.95 ± 0.15 | 788.19 ± 0.15 | 784.41 ± 0.15 | 1.296 ± 0.014 | 1.196 ± 0.013 | 1.107 ± 0.013 | 1.027 ± 0.013 | 0.958 ± 0.012
